Values joined by “and” are separate entries in the source; they are usually repeats but may differ in a detail not shown here. Identical values can stand only once.
What was measured:
antiovalbumin antibodies = assay: Rate of antiovalbumin antibodies in guinea pigs three weeks after injection of ovalbumin in FIA emulsion; type: in vivo, Hartley guinea pigs
Protocol: In the two series of tests the results of which are indicated hereafter, the influence of the active principles of the drugs according to the invention on the antiovalbumin antibodies rate was studied under the following conditions.
(§1) Female Hartley guinea pigs of 300-350 g. were given in the plantar pad of each of the two rear paws an emulsion composed of equal parts of incomplete Freund's adjuvant and a physiological solution containing ovalbumin (5 mg/guinea pig) and the preparations to be tested. The Freund's incomplete adjuvant (FIA), the Freund's complete adjuvant (FCA) marketed by the DIFCO Company and N-acetylmuramyl-L-alanyl-D-isoglutamine were used as controls.
The rate of antibodies with respect to ovalbumin was determined three weeks later after the injection in the conditions which were indicated in the French patent Nr 71 41610 of Nov. 19, 1971; it is expressed in μg of the antigen-antibody precipitate per ml of serum at the point of equivalence.

[1] = system: delayed hypersensivity to ovalbumin; assay: Delayed hypersensitivity to ovalbumin (cutaneous reaction) in guinea pigs; type: in vivo, Hartley guinea pigs; conditions: 4 weeks after injection, 48 hours after 50 μg ovalbumine/animal sub-cutaneous
Protocol: as §1
In a second series of tests, the delayed hypersensivity to ovalbumin which produces a cutaneous reaction was measured four weeks after the injection; it is expressed by the diameter in millimetres of the erythema (E), of the induration (I) or of the necrosis (N), 48 hours after the sub-cutaneous injection of 50 micrograms of ovalbumin.

[2] = Table I, first series, 25 μg/animal + FIA, guinea pigs, 3 weeks after injection
[3] = Table II, second series, 25 μg/animal
[4] = Table II, second series, 100 μg/animal

SMILES	Antiovalbumin antibodies rates compared with animals which received Freund's incomplete adjuvant only (in words) (antiovalbumin antibodies; Table I)	Rate of antiovalbumin antibodies (individual animals) (antiovalbumin antibodies; [2])	Rate of antiovalbumin antibodies, mean values (antiovalbumin antibodies; [2])	Rate of antiovalbumin antibodies (individual animals) (antiovalbumin antibodies; [3])	Rate of antiovalbumin antibodies, mean values (antiovalbumin antibodies; [3])	Rate of antiovalbumin antibodies (individual animals) (antiovalbumin antibodies; [4])	Rate of antiovalbumin antibodies, mean values (antiovalbumin antibodies; [4])	Inhibition of the adjuvant action of Mur-N-Ac-L-Ala-D-Glu-α-NH2 when administered simultaneously (in words) (antiovalbumin antibodies; Table II, tests 5 and 6 versus test 3)	Delayed hypersensibility, cutaneous reaction (type letter not given) ([1]; 25 μg/animal)	Delayed hypersensibility, diameter of the induration (I) ([1]; 25 μg/animal)	Delayed hypersensibility, cutaneous reaction (type letter not given) ([1]; 100 μg/animal)	Delayed hypersensibility, diameter of the erythema (E) ([1]; 100 μg/animal)
CC(=O)NC1C(O)OC(CO)C(O)C1OC(C)C(=O)NC(C)C(=O)NC(CCC(=O)O)C(N)=O [Mur-N-Ac-D-Ala-D-Glu-,α-NH2, 2-(2-acetamido-2-deoxy-3-O-D-glucopyranose)-D-propionyl-D-alanyl-D-isoglutamine]	much lower	200 μg proteins / ml serum and 800 μg proteins / ml serum and 900 μg proteins / ml serum and 1300 μg proteins / ml serum and 1900 μg proteins / ml serum and 1500 μg proteins / ml serum	1068 μg proteins / ml serum	1720 μg proteins/ ml serum and 660 μg proteins/ ml serum and 3600 μg proteins/ ml serum and 1800 μg proteins/ ml serum and 1760 μg proteins/ ml serum	1890 μg proteins/ ml serum	950 μg proteins/ ml serum and 1000 μg proteins/ ml serum and 1200 μg proteins/ ml serum	1050 μg proteins/ ml serum	strongly inhibits the adjuvant action	0 millimetres	12 millimetres	0 millimetres	5 millimetres
CC(=O)N[C@H]1C(O)O[C@H](CO)[C@@H](O)[C@@H]1O[C@H](C)C(=O)N[C@@H](C)C(=O)N[C@@H](CCC(=O)O)C(N)=O (stereo partly drawn) [Mur-N-Ac-L-Ala-L-Glu-,α-NH2, 2-(2-acetamido-2-deoxy-3-D-glucopyranosyl)-D-propionyl-L-Ala-L-Glu-α-NH2]	much lower	1140 μg proteins / ml serum and 3400 μg proteins / ml serum and 4200 μg proteins / ml serum and 1700 μg proteins / ml serum and 800 μg proteins / ml serum and 700 μg proteins / ml serum and 2800 μg proteins / ml serum	2104 μg proteins / ml serum									
